Like-named read-outs stand apart in the source and are kept apart here.
Experiments:
[1] = target: T1, PIK3Ca_h (Homo sapiens, UniProt P42336); assay: Enzyme binding assay (KINOMEscan); settings: Eurofins DiscoveRx
T1 construct: purchased Eurofins DiscoveRx Corporation
Method: (§1) Kinase enzyme binding affinities of compounds disclosed herein were determined using the KINOMEscan technology performed by Eurofins DiscoveRx Corporation, San Diego, California, USA (www.eurofinsdiscoveryservices.com). Table 2 reports the obtained PIK3β Kd values (nM) of, with the PIK3β Kd being the inhibitor binding constant. Table 3 reports the obtained Kd values (nM), with the Kd being the inhibitor binding constant: […]

[2] = target: T2, PIK3Cb_h (Homo sapiens, UniProt P42338); assay: Enzyme binding assay (KINOMEscan); settings: Eurofins DiscoveRx
T2 construct: purchased Eurofins DiscoveRx Corporation
T2 sequence (P42338 whole entry): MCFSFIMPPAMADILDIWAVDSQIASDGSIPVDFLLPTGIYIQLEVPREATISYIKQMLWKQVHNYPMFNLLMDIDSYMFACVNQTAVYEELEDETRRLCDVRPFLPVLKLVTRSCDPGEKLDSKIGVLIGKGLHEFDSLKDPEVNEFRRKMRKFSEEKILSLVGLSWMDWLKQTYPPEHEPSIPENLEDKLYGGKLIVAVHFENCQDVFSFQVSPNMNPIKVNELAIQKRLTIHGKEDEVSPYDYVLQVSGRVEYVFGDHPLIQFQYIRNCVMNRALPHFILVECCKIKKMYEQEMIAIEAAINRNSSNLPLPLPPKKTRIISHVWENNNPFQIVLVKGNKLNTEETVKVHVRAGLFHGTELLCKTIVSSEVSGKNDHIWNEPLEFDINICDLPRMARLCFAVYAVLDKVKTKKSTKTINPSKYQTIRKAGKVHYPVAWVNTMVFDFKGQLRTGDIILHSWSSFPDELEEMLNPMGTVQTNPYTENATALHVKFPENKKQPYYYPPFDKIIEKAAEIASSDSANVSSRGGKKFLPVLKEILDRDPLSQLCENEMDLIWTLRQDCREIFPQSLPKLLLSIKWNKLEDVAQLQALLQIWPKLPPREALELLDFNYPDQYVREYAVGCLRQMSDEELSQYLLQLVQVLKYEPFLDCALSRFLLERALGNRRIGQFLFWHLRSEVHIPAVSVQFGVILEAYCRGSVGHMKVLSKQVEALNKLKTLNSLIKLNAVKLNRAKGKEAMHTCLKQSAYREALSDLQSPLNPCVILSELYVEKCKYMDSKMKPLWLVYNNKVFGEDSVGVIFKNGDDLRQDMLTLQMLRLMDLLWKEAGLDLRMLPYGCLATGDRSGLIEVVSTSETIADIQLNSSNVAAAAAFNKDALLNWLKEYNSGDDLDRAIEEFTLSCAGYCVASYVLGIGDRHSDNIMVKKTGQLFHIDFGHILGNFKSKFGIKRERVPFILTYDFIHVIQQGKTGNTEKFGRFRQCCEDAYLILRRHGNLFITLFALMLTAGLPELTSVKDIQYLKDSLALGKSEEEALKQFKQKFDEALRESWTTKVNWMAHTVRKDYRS
Method: as §1

[3] = target: T3, PIK3Cd_h (Homo sapiens, UniProt O00329); assay: Enzyme binding assay (KINOMEscan); settings: Eurofins DiscoveRx
T3 construct: purchased Eurofins DiscoveRx Corporation
T3 sequence (O00329 1-1044): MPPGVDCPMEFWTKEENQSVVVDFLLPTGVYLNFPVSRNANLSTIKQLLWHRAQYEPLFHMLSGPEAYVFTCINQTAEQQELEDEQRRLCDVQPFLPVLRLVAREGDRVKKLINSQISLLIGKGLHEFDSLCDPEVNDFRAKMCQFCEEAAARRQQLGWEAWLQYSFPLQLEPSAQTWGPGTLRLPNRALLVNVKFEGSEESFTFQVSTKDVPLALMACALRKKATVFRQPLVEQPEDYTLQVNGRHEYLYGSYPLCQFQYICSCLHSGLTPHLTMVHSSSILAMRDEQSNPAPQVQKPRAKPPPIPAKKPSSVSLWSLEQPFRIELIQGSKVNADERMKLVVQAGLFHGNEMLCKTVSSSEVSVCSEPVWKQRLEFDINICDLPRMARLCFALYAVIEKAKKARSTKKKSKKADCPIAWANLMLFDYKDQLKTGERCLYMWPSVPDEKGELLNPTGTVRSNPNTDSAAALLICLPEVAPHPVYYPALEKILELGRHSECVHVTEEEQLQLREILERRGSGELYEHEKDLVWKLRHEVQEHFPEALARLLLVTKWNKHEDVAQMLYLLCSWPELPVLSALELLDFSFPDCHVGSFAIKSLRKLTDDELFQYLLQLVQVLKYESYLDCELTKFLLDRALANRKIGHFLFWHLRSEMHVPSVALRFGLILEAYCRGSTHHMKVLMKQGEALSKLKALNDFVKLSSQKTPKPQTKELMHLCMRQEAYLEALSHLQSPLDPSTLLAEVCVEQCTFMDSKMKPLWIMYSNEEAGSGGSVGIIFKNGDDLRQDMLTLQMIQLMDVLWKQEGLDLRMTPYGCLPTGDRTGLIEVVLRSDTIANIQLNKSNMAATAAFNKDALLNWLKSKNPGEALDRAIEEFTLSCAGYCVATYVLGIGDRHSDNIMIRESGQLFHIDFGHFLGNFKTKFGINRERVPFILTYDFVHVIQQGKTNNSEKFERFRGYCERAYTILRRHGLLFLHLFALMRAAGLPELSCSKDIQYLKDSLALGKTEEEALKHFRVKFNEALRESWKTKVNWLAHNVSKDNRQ
Method: as §1

[4] = target: T4, PIK3Cg_h (Homo sapiens, UniProt P48736); assay: Enzyme binding assay (KINOMEscan); settings: Eurofins DiscoveRx
T4 construct: purchased Eurofins DiscoveRx Corporation
T4 sequence (P48736 whole entry): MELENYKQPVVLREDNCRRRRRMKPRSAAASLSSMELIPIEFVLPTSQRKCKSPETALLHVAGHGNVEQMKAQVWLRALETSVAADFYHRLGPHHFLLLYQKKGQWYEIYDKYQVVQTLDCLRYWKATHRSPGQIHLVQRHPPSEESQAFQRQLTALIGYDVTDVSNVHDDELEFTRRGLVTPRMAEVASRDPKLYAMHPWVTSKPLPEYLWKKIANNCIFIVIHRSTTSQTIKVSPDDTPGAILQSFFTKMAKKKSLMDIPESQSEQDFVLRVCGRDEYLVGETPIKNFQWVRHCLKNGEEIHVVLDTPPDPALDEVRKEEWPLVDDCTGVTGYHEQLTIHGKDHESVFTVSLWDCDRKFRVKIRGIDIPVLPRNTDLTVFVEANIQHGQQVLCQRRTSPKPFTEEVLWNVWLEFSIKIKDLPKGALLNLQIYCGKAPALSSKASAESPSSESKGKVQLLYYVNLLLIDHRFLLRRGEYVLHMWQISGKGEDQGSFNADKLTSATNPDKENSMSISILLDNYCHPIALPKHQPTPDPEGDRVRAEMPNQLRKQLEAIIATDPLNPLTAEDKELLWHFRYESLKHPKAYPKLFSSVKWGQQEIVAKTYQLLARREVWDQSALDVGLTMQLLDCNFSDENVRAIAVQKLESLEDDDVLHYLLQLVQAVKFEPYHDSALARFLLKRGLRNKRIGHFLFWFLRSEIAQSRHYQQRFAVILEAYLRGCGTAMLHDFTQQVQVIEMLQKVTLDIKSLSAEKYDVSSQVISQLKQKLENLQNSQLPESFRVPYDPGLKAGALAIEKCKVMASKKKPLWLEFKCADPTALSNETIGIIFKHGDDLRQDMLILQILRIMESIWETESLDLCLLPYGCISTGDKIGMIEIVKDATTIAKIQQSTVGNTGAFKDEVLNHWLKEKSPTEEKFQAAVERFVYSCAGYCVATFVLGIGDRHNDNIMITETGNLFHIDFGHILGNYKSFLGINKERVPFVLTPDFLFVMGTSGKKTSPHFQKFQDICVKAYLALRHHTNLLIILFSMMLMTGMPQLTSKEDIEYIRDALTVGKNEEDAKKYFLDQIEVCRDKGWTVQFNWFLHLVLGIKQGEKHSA
Method: as §1

[5] = tested on: phosphorylation of AKT in HCC70 cells; assay: Cellular assay: phosphorylation of AKT in HCC70 cells (western blotting); format: cell-based; settings: Homo sapiens, HCC70, 1 h, HCC70 cells, compound 500 nM, 60 min, inhibition of Akt activity from band intensities
Method in brief: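 HCC70 cells treated with compound at 500 nM (0.1% DMSO control) for 60 min at 37 °C; pAKT Ser473 and Thr308 plus total AKT measured by western blot with fluorescent detection. Inhibition from band intensities, binned as + (20–60%), ++ (60–80%), +++ (80–90%), ++++ (>90%).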

[6] = read-out: Index of AI (HCC70) p-AKT Thr 308
[7] = read-out: Index of AI (HCC70) p-AKT ser 473

T1 sequence (P42336 whole entry): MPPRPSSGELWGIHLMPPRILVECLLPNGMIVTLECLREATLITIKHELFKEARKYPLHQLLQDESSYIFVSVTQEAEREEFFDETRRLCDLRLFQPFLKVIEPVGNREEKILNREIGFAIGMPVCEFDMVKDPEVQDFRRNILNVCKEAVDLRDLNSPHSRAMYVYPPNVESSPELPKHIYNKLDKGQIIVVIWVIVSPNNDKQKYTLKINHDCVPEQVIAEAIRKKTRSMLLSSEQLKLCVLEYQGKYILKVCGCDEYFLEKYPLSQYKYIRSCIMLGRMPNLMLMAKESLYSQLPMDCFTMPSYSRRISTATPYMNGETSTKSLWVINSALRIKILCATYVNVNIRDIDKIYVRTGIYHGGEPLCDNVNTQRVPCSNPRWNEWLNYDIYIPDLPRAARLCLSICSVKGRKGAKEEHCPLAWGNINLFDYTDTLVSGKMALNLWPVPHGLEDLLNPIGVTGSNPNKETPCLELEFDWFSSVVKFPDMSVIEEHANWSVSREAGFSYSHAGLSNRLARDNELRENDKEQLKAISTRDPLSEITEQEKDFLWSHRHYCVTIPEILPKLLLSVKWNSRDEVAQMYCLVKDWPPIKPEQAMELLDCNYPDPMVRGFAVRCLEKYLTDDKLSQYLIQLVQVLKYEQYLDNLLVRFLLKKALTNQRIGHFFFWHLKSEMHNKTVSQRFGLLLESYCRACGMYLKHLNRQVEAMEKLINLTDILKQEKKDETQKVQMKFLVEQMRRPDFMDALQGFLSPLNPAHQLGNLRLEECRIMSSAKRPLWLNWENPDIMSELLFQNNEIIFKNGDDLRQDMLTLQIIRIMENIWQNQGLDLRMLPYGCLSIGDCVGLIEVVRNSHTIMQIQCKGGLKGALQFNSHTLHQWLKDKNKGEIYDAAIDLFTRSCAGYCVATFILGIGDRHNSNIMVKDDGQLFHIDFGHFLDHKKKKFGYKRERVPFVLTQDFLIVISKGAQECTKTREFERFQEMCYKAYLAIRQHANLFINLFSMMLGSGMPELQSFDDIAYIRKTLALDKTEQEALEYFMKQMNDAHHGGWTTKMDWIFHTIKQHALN

SMILES | Kd [1] [nM] | Kd [2] [nM] | Kd [3] [nM] | Kd [4] [nM] | inhibition at 0.5 µM [5, 6] [%] | inhibition at 0.5 µM [5, 7] [%]
CC(Nc1cc(F)cc(F)c1)c1cc(C(=O)N2CCC(N(C)C)C2)cn2c(=O)cc(N3CCOCC3)nc12 (single isomer, unassigned) [Compound 48-P1] | > 10000 | 400 | > 10000 | > 10000 |  | 
C[C@@H](Nc1cc(F)cc(F)c1)c1cc(C(=O)N2CC[C@H](N(C)C)C2)cn2c(=O)cc(N3CCOCC3)nc12 [Compound 48-P4, 9-((R)-1-((3,5-difluorophenyl)amino)ethyl)-7-((S)-3-(dimethylamino)pyrrolidine-1-carbonyl)-2-morpholino-4H-pyrido[1,2-a]pyrimidin-4-one] | 190 |  | 18 | 1600 |  | 
C[C@@H](Nc1cc(F)cc(F)c1)c1cc(C(=O)N2CC[C@@H](N(C)C)C2)cn2c(=O)cc(N3CCOCC3)nc12 [Compound 48-P3, 9-((R)-1-((3,5-difluorophenyl)amino)ethyl)-7-((R)-3-(dimethylamino)pyrrolidine-1-carbonyl)-2-morpholino-4H-pyrido[1,2-a]pyrimidin-4-one] | 92 |  | 8.9 | 1100 |  | 
CC(Nc1cc(F)cc(F)c1)c1cc(NC2=NC(C)(C)CO2)cc2c(=O)cc(N3CCOCC3)oc12 (stereo not shown) [Compound 21, 8-(1-((3,5-difluorophenyl)amino)ethyl)-6-((4,4-dimethyl-4,5-dihydrooxazol-2-yl)amino)-2-morpholino-4H-chromen-4-one] | 45 | 0.31 | 58 | 2200 | 80 to 90 | 80 to 90
CN(C)C(=O)c1cc(CN2CCc3c(F)cc(F)cc32)c2oc(N3CCOCC3)cc(=O)c2c1 [Compound 32, 8-((4,6-difluoroindolin-1-yl)methyl)-N,N-dimethyl-2-morpholino-4-oxo-4H-chromene-6-carboxamide] | 54 | 0.18 | 19 | 500 | > 90 | > 90
CC(Nc1cc(F)cc(F)c1)c1cc(C(=O)N2CCC(N(C)C)C2)cn2c(=O)cc(N3CCOCC3)nc12 (stereo not shown) [Compound 48, 9-(1-((3,5-difluorophenyl)amino)ethyl)-7-(3-(dimethylamino)pyrrolidine-1-carbonyl)-2-morpholino-4H-pyrido[1,2-a]pyrimidin-4-one] | 130 | 0.26 | 40 | 730 | 80 to 90 | 80 to 90

These reach a lower Kd [1]. Values come first.

Kd [1] [nM] | Kd [2] [nM] | Kd [3] [nM] | Kd [4] [nM] | SMILES | inhibition at 0.5 µM [5, 6] [%] | inhibition at 0.5 µM [5, 7] [%]
22 | 1 | 7.4 | 230 | C[C@@H]1CN(c2cc(=O)c3cc(C(=O)N(C)C)cc(CN4CCc5c(F)cccc54)c3o2)CCO1 [Compound 91, (R)-8-((4-fluoroindolin-1-yl)methyl)-N,N-dimethyl-2-(2-methylmorpholino)-4-oxo-4H-chromene-6-carboxamide] | > 90 | > 90
17 | 0.49 | 12 | 320 | CC1Cc2c(F)cccc2N1Cc1cc(C(=O)N(C)C)cc2c(=O)cc(N3CCOCC3)oc12 (stereo not shown) [Compound 33, 8-((4-fluoro-2-methylindolin-1-yl)methyl)-N,N-dimethyl-2-morpholino-4-oxo-4H-chromene-6-carboxamide] | > 90 | > 90
3.2 | 0.075 | 1.5 | 87 | C[C@@H]1CN(c2cc(=O)c3cc(C(=O)N(C)C)cc(CN4CCc5c(F)cc(F)cc54)c3o2)CCO1 [Compound 90, (R)-8-((4,6-difluoroindolin-1-yl)methyl)-N,N-dimethyl-2-(2-methylmorpholino)-4-oxo-4H-chromene-6-carboxamide] | > 90 | > 90
22 | 0.2 | 8 | 730 | CC(Nc1cc(F)cc(F)c1)c1cc(N2CCOCC2=O)cc2c(=O)cc(N3CCOCC3)oc12 (stereo not shown) [Compound 10, 4-(8-(1-((3,5-difluorophenyl)amino)ethyl)-2-morpholino-4-oxo-4H-chromen-6-yl)morpholin-3-one] | > 90 | > 90
36 | 0.19 | 8.1 | 110 | CNS(=O)(=O)c1cc(C(C)Nc2cc(F)cc(F)c2)c2oc(N3CCOCC3)cc(=O)c2c1 (stereo not shown) [Compound 16, 8-(1-((3,5-difluorophenyl)amino)ethyl)-N-methyl-2-morpholino-4-oxo-4H-chromene-6-sulfonamide] | > 90 | > 90
